Tested on: maximal electroshock seizures in mice
Assay: Maximal electroshock test (MES) in mice
Type: in vivo, mouse
Conditions: i.v., 5 minutes before testing
Excerpt: Animals and Apparatus: Male CDl mice weighing 25 g were used. The procedure described by White et al. (White H. S., Woodhead J. H., Franklin […]., and Wolf H. H. Antiepileptic Drugs (1995) 4th ed: 99-110, Raven Press, Ltd., New York) was followed. An Ugo Basile electroconvulsive generator (Model ECT UNIT 7801) was used to deliver an electrical stimulus sufficient to produce a hindlimb tonic extensor response in at least 97% of control animals. The stimulus was delivered intra-aurally through clip electrodes in mice (0.7 s of a 40 mA shock, with a pulse train of 80 Hz having a pulse duration of 0.4 ms). […] Ten mice were studied per group. Complete suppression of the hindlimb tonic extensor component of seizures was taken as evidence of anticonvulsant activity.

CCCCOc1cccc(CCN(CC(=O)N(C)C)CC2CCOC2)c1.Cl (racemic) [Example 96, 2-[[2-(3-Butoxy-phenyl)-ethyl]-(tetrahydrofuran-3-ylmethyl)amino]-N,N-dimethyl-acetamide hydrochloride]
50% Protection: (0.8 mg/kg/iv)
